Consider three compounds from ChEMBL document CHEMBL5291721, “A preclinical secondary pharmacology resource illuminates target-adverse drug reaction associations of marketed drugs” (Nat Commun, 2023).

The target of assay [1] is 3',5'-cyclic-AMP phosphodiesterase 4D (Homo sapiens, UniProt Q08499). It counts as functional.
The target of assay [2] is T1, Alpha-1A adrenergic receptor (Homo sapiens, UniProt P35348).
T1 sequence (P35348 whole entry): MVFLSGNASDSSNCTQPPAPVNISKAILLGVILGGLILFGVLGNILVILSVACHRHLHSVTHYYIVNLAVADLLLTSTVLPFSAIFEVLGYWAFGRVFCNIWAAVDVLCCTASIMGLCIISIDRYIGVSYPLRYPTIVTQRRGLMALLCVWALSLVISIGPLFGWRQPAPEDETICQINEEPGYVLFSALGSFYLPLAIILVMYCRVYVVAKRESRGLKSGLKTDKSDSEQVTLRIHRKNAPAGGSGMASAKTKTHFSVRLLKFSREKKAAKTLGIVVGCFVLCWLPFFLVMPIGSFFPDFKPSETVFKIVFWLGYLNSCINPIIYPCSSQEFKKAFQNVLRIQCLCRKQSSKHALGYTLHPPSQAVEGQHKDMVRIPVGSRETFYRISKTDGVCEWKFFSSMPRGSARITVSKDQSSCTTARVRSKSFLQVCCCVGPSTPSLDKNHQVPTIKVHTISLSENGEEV
The format is functional, cell-based.

The target of assay [3] is T2, Alpha-2C adrenergic receptor (Homo sapiens, UniProt P18825).
T2 sequence (P18825 whole entry): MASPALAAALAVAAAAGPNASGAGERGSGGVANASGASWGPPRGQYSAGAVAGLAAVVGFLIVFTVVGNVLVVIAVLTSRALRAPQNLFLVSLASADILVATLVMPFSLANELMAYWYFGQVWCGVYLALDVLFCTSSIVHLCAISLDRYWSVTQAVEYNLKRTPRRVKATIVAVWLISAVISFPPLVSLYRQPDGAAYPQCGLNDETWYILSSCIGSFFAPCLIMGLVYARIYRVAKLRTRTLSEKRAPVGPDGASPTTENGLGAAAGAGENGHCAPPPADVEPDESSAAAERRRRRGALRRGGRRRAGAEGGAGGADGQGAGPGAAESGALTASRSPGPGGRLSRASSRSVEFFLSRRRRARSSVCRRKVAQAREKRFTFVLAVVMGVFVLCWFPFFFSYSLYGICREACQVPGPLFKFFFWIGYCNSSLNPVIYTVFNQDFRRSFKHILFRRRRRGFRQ
It counts as functional.

The target in assay [4] is T1, Alpha-1A adrenergic receptor. The format is functional, cell-based. The source holds these as a separate data set.
The target of assay [5] is T3, Muscarinic acetylcholine receptor M1 (Homo sapiens, UniProt P11229).
T3 sequence (P11229 whole entry): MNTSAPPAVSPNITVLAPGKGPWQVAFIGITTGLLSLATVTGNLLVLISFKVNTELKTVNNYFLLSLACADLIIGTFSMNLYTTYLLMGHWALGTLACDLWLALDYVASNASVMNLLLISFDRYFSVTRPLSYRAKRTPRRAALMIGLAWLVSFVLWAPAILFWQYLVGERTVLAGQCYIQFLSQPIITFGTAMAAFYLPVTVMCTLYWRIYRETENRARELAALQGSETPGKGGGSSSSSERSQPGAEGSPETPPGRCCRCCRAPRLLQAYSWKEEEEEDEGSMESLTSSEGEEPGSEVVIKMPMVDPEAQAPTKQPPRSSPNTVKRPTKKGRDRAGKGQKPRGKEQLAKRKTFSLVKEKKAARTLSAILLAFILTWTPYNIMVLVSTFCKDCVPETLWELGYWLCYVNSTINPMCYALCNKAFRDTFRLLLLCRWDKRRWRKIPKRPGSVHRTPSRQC
It counts as functional, cell-based.

The target of another assay is T4, Thromboxane A2 receptor (Homo sapiens, UniProt P21731).
T4 sequence (P21731 whole entry): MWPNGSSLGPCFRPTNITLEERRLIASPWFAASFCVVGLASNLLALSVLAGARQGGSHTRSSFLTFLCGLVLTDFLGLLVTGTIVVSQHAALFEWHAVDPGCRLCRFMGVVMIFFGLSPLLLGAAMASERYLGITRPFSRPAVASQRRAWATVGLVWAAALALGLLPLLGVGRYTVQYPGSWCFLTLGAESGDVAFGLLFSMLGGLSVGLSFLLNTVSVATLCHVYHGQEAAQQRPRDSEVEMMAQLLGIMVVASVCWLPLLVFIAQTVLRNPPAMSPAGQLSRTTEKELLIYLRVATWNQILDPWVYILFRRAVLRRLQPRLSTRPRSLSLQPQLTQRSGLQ

Assay [6] concerns the target cGMP-inhibited 3',5'-cyclic phosphodiesterase 3A (Homo sapiens, UniProt Q14432). The format is functional.
For the next assay, the target named is T5, B2 bradykinin receptor (Homo sapiens, UniProt P30411).
T5 sequence (P30411 whole entry): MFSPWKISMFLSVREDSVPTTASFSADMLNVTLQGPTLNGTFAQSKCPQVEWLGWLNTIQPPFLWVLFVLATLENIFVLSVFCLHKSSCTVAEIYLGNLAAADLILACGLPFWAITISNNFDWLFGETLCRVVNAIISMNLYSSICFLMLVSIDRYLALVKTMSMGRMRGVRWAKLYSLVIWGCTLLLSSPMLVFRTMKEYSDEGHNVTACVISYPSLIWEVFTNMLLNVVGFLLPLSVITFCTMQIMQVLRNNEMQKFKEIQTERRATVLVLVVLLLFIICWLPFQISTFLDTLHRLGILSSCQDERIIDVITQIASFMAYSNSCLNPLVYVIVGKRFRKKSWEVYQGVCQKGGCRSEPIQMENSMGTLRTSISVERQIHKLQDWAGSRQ

The target in assay [7] is T6, Alpha-2A adrenergic receptor (Homo sapiens, UniProt P08913).
T6 sequence (P08913 whole entry): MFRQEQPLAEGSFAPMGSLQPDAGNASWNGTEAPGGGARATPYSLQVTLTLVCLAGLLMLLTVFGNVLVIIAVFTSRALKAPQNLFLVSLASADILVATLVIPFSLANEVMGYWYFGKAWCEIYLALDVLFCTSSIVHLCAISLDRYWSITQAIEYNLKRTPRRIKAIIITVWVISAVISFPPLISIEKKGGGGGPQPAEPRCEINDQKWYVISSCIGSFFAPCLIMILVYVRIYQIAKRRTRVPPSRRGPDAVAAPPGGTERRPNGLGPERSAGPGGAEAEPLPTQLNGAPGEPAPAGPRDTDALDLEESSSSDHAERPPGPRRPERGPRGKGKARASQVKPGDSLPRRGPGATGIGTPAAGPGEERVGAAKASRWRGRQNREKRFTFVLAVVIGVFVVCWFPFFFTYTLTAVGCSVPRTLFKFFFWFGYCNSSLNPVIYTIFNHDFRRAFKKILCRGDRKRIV
The format is functional, cell-based.

The target in assay [8] is 5-hydroxytryptamine receptor 2B (Homo sapiens, UniProt P41595). The format is functional, cell-based.
Sequence of 5-hydroxytryptamine receptor 2B (P41595 whole entry): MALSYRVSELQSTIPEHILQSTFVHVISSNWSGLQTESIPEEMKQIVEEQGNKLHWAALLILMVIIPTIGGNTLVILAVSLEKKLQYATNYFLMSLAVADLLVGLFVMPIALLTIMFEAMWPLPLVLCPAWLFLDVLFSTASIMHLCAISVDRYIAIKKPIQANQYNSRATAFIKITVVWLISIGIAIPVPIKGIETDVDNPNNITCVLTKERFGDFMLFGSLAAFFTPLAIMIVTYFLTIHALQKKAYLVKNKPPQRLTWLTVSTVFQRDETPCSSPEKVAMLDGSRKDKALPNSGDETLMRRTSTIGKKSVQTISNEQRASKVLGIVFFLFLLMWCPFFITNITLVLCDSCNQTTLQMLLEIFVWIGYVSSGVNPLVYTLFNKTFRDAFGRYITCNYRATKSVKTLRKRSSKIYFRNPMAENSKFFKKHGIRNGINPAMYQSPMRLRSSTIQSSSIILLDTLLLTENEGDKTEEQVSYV

Where only a bound is given, the exact number is not on record here.
Further: assay procedure not described here.

Sequence of 3',5'-cyclic-AMP phosphodiesterase 4D (Q08499 whole entry): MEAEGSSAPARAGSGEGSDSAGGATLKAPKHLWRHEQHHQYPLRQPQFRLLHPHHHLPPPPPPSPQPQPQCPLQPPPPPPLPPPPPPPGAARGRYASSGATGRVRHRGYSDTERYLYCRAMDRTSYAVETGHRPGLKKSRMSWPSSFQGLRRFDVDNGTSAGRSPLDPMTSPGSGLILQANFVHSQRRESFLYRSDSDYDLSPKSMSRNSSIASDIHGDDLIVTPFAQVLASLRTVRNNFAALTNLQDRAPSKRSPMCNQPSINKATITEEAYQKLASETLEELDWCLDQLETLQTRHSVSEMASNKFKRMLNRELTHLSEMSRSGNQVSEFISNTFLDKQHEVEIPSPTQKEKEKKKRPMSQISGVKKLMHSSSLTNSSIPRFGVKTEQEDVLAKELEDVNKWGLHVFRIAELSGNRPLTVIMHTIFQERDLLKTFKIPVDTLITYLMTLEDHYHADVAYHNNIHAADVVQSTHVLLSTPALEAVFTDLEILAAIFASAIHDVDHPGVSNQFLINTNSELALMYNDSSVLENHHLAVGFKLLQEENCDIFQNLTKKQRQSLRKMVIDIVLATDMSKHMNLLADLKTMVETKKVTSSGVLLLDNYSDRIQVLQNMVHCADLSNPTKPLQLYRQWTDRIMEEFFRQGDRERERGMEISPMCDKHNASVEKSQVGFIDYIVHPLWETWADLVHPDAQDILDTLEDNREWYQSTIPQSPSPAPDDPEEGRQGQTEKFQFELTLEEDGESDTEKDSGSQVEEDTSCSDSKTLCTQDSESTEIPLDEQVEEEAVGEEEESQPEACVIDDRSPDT
Sequence of cGMP-inhibited 3',5'-cyclic phosphodiesterase 3A (Q14432 whole entry): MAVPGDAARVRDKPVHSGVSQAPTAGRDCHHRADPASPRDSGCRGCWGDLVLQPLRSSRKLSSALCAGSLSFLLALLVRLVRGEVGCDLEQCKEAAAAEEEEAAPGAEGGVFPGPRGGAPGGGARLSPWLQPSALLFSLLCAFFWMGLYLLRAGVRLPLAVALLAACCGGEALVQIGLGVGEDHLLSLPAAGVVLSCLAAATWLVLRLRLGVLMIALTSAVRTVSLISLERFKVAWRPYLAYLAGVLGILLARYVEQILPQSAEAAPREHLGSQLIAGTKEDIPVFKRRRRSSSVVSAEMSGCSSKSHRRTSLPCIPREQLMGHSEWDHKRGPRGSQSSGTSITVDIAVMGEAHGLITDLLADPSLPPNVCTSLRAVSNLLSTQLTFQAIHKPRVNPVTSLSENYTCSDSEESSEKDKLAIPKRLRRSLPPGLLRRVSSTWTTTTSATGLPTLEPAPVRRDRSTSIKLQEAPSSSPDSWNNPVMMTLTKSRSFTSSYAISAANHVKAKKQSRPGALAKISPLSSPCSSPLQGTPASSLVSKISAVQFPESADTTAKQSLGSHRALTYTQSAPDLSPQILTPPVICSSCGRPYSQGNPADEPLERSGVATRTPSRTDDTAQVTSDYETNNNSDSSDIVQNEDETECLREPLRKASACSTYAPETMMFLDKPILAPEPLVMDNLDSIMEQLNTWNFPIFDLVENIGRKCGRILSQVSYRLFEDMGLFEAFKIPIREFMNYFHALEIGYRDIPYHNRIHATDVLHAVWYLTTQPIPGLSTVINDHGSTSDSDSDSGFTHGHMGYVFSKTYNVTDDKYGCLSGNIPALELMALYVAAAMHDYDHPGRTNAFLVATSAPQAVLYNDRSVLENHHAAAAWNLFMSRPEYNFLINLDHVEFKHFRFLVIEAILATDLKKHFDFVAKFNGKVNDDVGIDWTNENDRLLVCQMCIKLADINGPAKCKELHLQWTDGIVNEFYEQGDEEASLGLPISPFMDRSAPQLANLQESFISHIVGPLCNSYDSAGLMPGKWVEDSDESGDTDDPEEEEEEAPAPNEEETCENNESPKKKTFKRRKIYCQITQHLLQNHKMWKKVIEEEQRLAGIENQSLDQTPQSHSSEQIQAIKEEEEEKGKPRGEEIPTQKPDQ

As usually defined, the AC50 is the midpoint of the concentration-response curve, whichever way the signal moves. High values mean weaker potency, low ones greater potency. As to `C[C@]1(COc2ccc(N3CCC(Oc4ccc(OC(F)(F)F)cc4)CC3)cc2)Cn2cc([N+](=O)[O-])nc2O1`, the AC50 is over 30 µM in assay [1]; over 30 µM in [2]; over 10 µM in assay [3]; over 30 µM in [4]; over 30 µM in assay [5]; over 30 µM on Thromboxane A2 receptor. The AC50 (in assay [6]; on B2 bradykinin receptor) was over 30 µM throughout.

On to `CO/N=C(\C(=O)N[C@@H]1C(=O)N2C(C(=O)[O-])=C(C[n+]3cccc4c3CCC4)CS[C@H]12)c1csc(N)n1` [CEFPIROME], for which the AC50 in assay [1], in assay [2], in [7], in assay [3], in assay [4] and in [5] was over 30 µM each time. Moreover, the AC50 in [6] and in assay [8] was over 30 µM each time.

As for `COc1cc([C@@H]2c3cc4c(cc3[C@@H](O[C@@H]3O[C@@H]5CO[C@@H](c6cccs6)O[C@H]5[C@H](O)[C@H]3O)[C@H]3COC(=O)[C@H]23)OCO4)cc(OC)c1O` [TENIPOSIDE], the AC50 in assay [2], in assay [4] and in [5] was over 30 µM in each case.
